Measured values reported in patent US20240228562A1, “NOVEL LIPOCALIN MUTEINS SPECIFIC FOR CONNECTIVE TISSUE GROWTH FACTOR (CTGF)” (PIERIS PHARMACEUTICALS GMBH, priority 2021, published 2024).

Key:
[1] = test system: CCL-206 lung fibroblasts co-cultured with primary murine Epcam-positive epithelial progenitor cells; test: Lung organoid formation model; assay type: cell-based; conditions: 14 days treatment; nintedanib 100 nM; SEQ ID NO: 74 at 100 nM
Protocol: The effect of CTGF-targeting lipocalin muteins was analyzed using an organoid model for lung regeneration. In this model, CCL-206 lung fibroblasts are co-cultured with freshly isolated primary murine Epcam-positive epithelial progenitor cells, and the number of formed organoids is analyzed after 14 days. TGF-b1 pre-treatment of CCL-206 fibroblasts leads to an impaired organoid formation and resembles an impairment of lung regeneration as for example observed in lung disease, such as IPF. The impaired formation of organoids can be rescued by treatment with different drugs, such as nintedanib, which is used as a positive control in this model. […] Analysis of organoid numbers confirmed the impairment of organoid formation by TGF-b1 stimulation.

[2] = test system: idiopathic pulmonary fibrosis (IPF); conditions: cited from earlier work; for Decline in lung function in IPF: FDA-approved drugs for IPF; for Tolerability in IPF patients: gastrointestinal and other drug-related tolerability issues
[3] = test system: human melanoma cell lines; conditions: cited from earlier work

Compound | Effect on TGF-b1 impaired organoid formation [1] | Decline in lung function in IPF [2] | Tolerability in IPF patients [2] | Migration of human melanoma cell lines [3] | Disease progression in patients suffering from IPF ([2]; phase 2 clinical trial)
COC(=O)c1ccc2c(c1)NC(=O)/C2=C(\Nc1ccc(N(C)C(=O)CN2CCN(C)CC2)cc1)c1ccccc1 [nintedanib] | partially rescued | slowing down the decline in lung function | not well-tolerated | – | –
Cc1ccc(=O)n(-c2ccccc2)c1 [pirfenidone] | – | slowing down the decline in lung function | not well-tolerated | – | –
FG-3019/pamrevlumab: anti-CTGF monoclonal antibody in clinical trials | – | – | – | inhibition of the migration | attenuated disease progression
